Literature values in patent US20040202615A1, “Melt-processed powder containing particles' repulsion agent, evaporation retardant, and means for benefit to plant cultivation and/or animal husbandry” (priority 2003, published 2004).

Test system: natural living organisms in water
Settings: active ingredient level 0.04-1.0% in plastic pool and pit liners

Question: With CCCCCCCCn1sccc1=O [2-o-octyl-4-isothiazolin-3-one] as the compound, how does the “slowing of degradation of plastic liners by natural living organisms” value read?
Answer: significantly slows down their degradation
